This is an account of results in US20190192510A1, “GPR119 AGONIST” (NIPPON CHEMIPHAR CO., LTD., priority 2010, published 2019).

The assay addresses T1, human GPR119 (Homo sapiens, UniProt Q8TDV5).
T1 sequence (Q8TDV5 1-335): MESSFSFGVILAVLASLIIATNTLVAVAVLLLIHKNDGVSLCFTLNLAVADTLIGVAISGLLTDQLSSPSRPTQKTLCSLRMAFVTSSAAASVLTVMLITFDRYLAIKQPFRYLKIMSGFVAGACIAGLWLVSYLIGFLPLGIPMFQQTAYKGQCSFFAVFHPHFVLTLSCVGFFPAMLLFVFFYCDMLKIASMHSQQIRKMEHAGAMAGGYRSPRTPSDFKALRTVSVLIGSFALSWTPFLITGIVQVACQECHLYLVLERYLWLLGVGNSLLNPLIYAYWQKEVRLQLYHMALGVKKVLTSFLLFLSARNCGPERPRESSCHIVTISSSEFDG
The assay is described as follows: Intracellular cAMP increase in human GPR119 introduced cells (Pharmacological Experiments 1 and 2). Type of assay: cell-based. The following applies: for GPR119 agonist effect: result in words, refers to Tables 12 and 13.
Description: The GPR119 agonist effect is studied by measuring the effect of an analyte on increase of intracellular amount of cAMP in human GPR119 introduced cells. The testing method is described below.
Human GPR119 gene (NM 178471) is purchased from ATCC (ATCC No. 10807349), and is amplyfied according to PCR to form BamHI site at 5′ side and Apa I site at 3′ side. The forward side primer is […] (sequence No. 1), and the reverse side primer is […] (sequence No. 2). The PCR conditions are described below.
(§1) The double-stranded DNA is thermally denatured using a DNA polymerase (KOD-Plus-Ver. 2; TOYOBO #KOD-211) at 98° C. for 10 seconds in one cycle. The denatured single-stranded DNA is annealed with the primers at 55° C. for 30 seconds. The DNA is subjected to an extension reaction at 68° C. for 1 minute and 15 seconds. The above-mentioned steps are repeated in 35 cycles. The PCR product is inserted into pcDNA5/FRT/TO (Invitrogen #V6520-20) plasmid. Flp-in T-Rex-293 cells (Invitorogen #R78007) are transfected with the obtained plasmid. The method of transfection is conducted in accordance with the protocol of the product.
The stable cell line expressing human GPR119 prepared in the above-mentioned method is plated on a 96-well plate at the concentration of 2,500 cells/well using Dulbecco's Modified Eagle Medium (DMEM) containing 10% fetal bovine serum (FBS). Twenty-four hours after plating, tetracyclin (Invitrogen #Q10019) is added at the final concentration of 20 ng/mL to induce hGPR119 gene expression. Twenty-four hours after, the medium is removed, and the cells are stimulated with an assay buffer (0.5 mM IBMX PBS(−)) containing the test compound at 37° C. for 30 minutes. The amount of the intracellular cAMP is measured using a commercially available kit (HitHunter™ cAMP XS+ Assay: GE Healthcare #90007503) and a reader (FLUOstar Optima: BMG LABTECH). The test compound is dissolved in 100% DMSO, and added at the final concentration of 1%.
Human GPR119 gene (NM 178471) was purchased from ATCC (ATCC No. 10807349), and is amplyfied according to PCR to form BamHI site at 5′ side and Apa I site at 3′ side. The primers were […] (sequence No. 1) and […] (sequence No. 2). The PCR conditions are described below.
as §1, with “was” for “is”, “were” for “are”
The stable cell line expressing human GPR119 prepared in the above-mentioned method was plated on a 96-well plate at the concentration of 2,500 cells/well using Dulbecco's Modified Eagle Medium (DMEM) containing 10% fetal bovine serum (FBS). Twenty-four hours after plating, tetracyclin (Invitrogen #Q10019) was added at the final concentration of 20 ng/mL to induce hGPR119 gene expression. Twenty-four hours after, the medium was removed, and the cells were stimulated with an assay buffer (0.5 mM IBMX PBS (−)) containing the test compound at 37° C. for 30 minutes. The amount of the intracellular cAMP was measured using a commercially available kit (HitHunter™ cAMP XS+ Assay: GE Healthcare #90007503) and a reader (FLUOstar Optima: BMG LABTECH). The test compound was dissolved in 100% DMSO, and added at the final concentration of 1%.
The examination was performed by the method similar to Example 61 Pharmacological experiment 1-(1), 1-(2).

Where [1] appears, read: Table 12, Flp-in T-Rex-293 cells stably expressing hGPR119, intracellular cAMP, 37° C. for 30 minutes, read-out: EC50.
Setting [2] is: Table 13, Pharmacological experiment 2, method similar to Example 61, read-out: EC50.

Where two headings read alike, the source gives them in different places.

In general, EC50 refers to the midpoint of the concentration-response curve. With `CC(C)(C)OC(=O)N1CCC(c2cnc(COc3ccc(S(C)(=O)=O)cc3)nc2)CC1` [Example 1, tert-Butyl 4-[2-(4-methanesulfonylphenoxymethyl)pyrimidin-5-yl]piperidine-1-carboxylate], under setting [1], the EC50 was found to be 313 nM.
`CC(C)(C)OC(=O)N1CC=C(c2cnc(COc3ccc(S(C)(=O)=O)cc3)cn2)CC1` [Example 2, tert-Butyl 4-[5-(4-methanesulfonylphenoxymethyl)pyrazin-2-yl]-3,6-dihydro-2H-pyridine-1-carboxylate]: a half-maximal effect (EC50) was put at 76.5 nM.
On to `CC(C)(C)OC(=O)N1CCC(c2cnc(COc3ccc(S(C)(=O)=O)cc3)cn2)CC1` [Example 3, tert-Butyl 4-[5-(4-methanesulfonylphenoxymethyl)pyrazin-2-yl]piperidine-1-carboxylate], for which the EC50 amounted to 74.6 nM.
On the same count and under the same terms, with `CC(C)(C)OC(=O)N1CCC(c2cnc(Cn3ccc4cc(S(C)(=O)=O)ccc43)nc2)CC1` [Example 4, tert-Butyl 4-[2-(5-methanesulfonylindol-1-ylmethyl)pyrimidin-5-yl]piperidine-1-carboxylate] the figure was 62.4 nM; with `CC(C)(C)OC(=O)N1C2C=C(c3cnc(COc4ccc(S(C)(=O)=O)cc4)cn3)CC1CC2` (stereo not shown) [Example 10, tert-Butyl 3-[5-(4-methanesulfonylphenoxymethyl)pyrazin-2-yl]-8-azabicyclo[3.2.1]oct-2-ene-8-carboxylate], 99.8 nM; with `CC(C)(C)OC(=O)N1C2CCC1CC(c1cnc(COc3ccc(S(C)(=O)=O)cc3)cn1)C2` (stereo not shown) [Example 11, tert-Butyl 3-[5-(4-methanesulfonylphenoxymethyl)pyrazin-2-yl]-8-azabicyclo[3.2.1]octane-8-carboxylate], 67.3 nM.
As for `CC(C)(C)OC(=O)N1CC=C(c2cnc(COc3ccc(-n4cnnn4)cc3F)cn2)CC1` [Example 12, tert-Butyl 4-[5-[2-fluoro-4-(tetrazol-1-yl)phenoxymethyl]pyrazin-2-yl]-3,6-dihydro-2H-pyridine-1-carboxylate], the EC50 worked out at 56.4 nM.
Regarding `CC1CN(C(=O)OC(C)(C)C)CC=C1c1cnc(Cn2ccc3cc(S(C)(=O)=O)cnc32)cn1` (stereo not shown) [Example 15, tert-Butyl 4-[5-(5-methanesulfonyl-1H-pyrrolo[2,3-b]pyridin-1-ylmethyl)pyrazin-2-yl]-3-methyl-3,6-dihydro-2H-pyridine-1-carboxylate], the EC50 under setting [1] was found to be 126 nM.
With `CC1CN(C(=O)OC(C)(C)C)CC=C1c1cnc(COc2ccc(-n3cncn3)cc2)cn1` (stereo not shown) [Example 17, tert-Butyl 3-methyl-4-[5-[4-(1,2,4-triazol-1-yl)phenoxymethyl]pyrazin-2-yl]-3,6-dihydro-2H-pyridine-1-carboxylate], the EC50 under setting [1] is 124 nM.
Compound `CC1CN(C(=O)OC(C)(C)C)CC=C1c1cnc(Cn2ccc3c(F)c(S(C)(=O)=O)c(F)cc32)cn1` (stereo not shown) [Example 19, tert-Butyl 4-[5-(4,6-difluoro-5-methanesulfonylindol-1-ylmethyl)pyrazin-2-yl]-3-methyl-3,6-dihydro-2H-pyridine-1-carboxylate] displayed an EC50 of 82.8 nM.
`CC(C)(C)OC(=O)N1CC=C(c2cnc(Cn3ccc4cc(S(C)(=O)=O)c(F)c(F)c43)cn2)CC1` [Example 20, tert-Butyl 4-[5-(6,7-difluoro-5-methanesulfonylindol-1-ylmethyl)pyrazin-2-yl]-3,6-dihydro-2H-pyridine-1-carboxylate]: a half-maximal effect (EC50) was put at 21.9 nM and the GPR119 agonist effect entry was “excellent GPR119 agonist effect”.
Take `CC1CN(C(=O)OC(C)(C)C)CC=C1c1cnc(Cn2ccc3cc(S(C)(=O)=O)c(F)c(F)c32)cn1` (stereo not shown) [Example 21, tert-Butyl 4-[5-(6,7-difluoro-5-methanesulfonylindol-1-ylmethyl)pyrazin-2-yl]-3-methyl-3,6-dihydro-2H-pyridine-1-carboxylate]: a half-maximal response (EC50) required 21.4 nM and the GPR119 agonist effect result was “excellent GPR119 agonist effect”.
`CC1CN(C(=O)OC(C)(C)C)CC=C1c1cnc(COc2ccc(S(C)(=O)=O)c(F)c2F)nc1` (stereo not shown) [Example 24, tert-Butyl 4-[2-(2,3-difluoro-4-methanesulfonylphenoxymethyl)pyrimidin-5-yl]-3-methyl-3,6-dihydro-2H-pyridine-1-carboxylate]: the EC50 under setting [1] is 111 nM.
`CC(C)(C)OC(=O)N1CCC(c2cnc(Cn3ccc4cc(S(C)(=O)=O)cc(F)c43)cn2)CC1` [Example 28, tert-Butyl 4-[5-(7-fluoro-5-methanesulfonylindol-1-ylmethyl)pyrazin-2-yl]piperidine-1-carboxylate]: the EC50 was 7.6 nM and the GPR119 agonist effect entry was “excellent GPR119 agonist effect”.
Compound `CC(C)OC(=O)N1CC=C(c2cnc(Cn3ccc4cc(S(C)(=O)=O)c(F)c(F)c43)cn2)C(C)C1` (stereo not shown) [Example 29, Isopropyl 4-[5-(6,7-difluoro-5-methanesulfonylindol-1-ylmethyl)pyrazin-2-yl]-3-methyl-3,6-dihydro-2H-pyridine-1-carboxylate] gave an EC50 of 35.7 nM.
`CC(C)OC(=O)N1CC=C(c2cnc(Cn3ccc4c(F)c(S(C)(=O)=O)c(F)cc43)cn2)C(C)C1` (stereo not shown) [Example 30, Isopropyl 4-[5-(4,6-difluoro-5-methanesulfonylindol-1-ylmethyl)pyrazin-2-yl]-3-methyl-3,6-dihydro-2H-pyridine-1-carboxylate]: under setting [2], the EC50 came to 137 nM.
As for `CC(C)(C)OC(=O)N1CCC(c2cnc(Cn3ccc4cc(-n5cnnn5)cc(F)c43)cn2)CC1` [Example 34, tert-Butyl 4-[5-[7-fluoro-5-(tetrazol-1-yl)indol-1-ylmethyl]pyrazin-2-yl]piperidine-1-carboxylate], the EC50 was found to be 2.9 nM and the GPR119 agonist effect entry is reported as “excellent GPR119 agonist effect”.
The compound `CC(C)OC(=O)N1CCC(c2cnc(Cn3ccc4cc(-n5cnnn5)cc(F)c43)cn2)CC1` [Example 38, Isopropyl 4-[5-[7-fluoro-5-(tetrazol-1-yl)indol-1-ylmethyl]pyrazin-2-yl]piperidine-1-carboxylate] showed an EC50 of 16.5 nM.
For `CCc1cnc(N2CCC(c3cnc(Cn4ccc5cc(-n6cnnn6)cc(F)c54)cn3)CC2)nc1` [Example 42, 5-Ethyl-2-[4-[5-[7-fluoro-5-(tetrazol-1-yl)indol-1-ylmethyl]pyrazin-2-yl]piperidin-1-yl]pyrimidine], the GPR119 agonist effect entry is reported as “excellent GPR119 agonist effect”. For the same compound, the EC50 under setting [2] was 3.1 nM.
As to `CC(C)(C)OC(=O)N1CCC(c2cnc(Cn3ccc4cc(S(C)(=O)=O)cnc43)nc2)CC1` [Example 46, tert-Butyl 4-[2-(5-methanesulfonyl-1H-pyrrolo[2,3-b]pyridin-1-ylmethyl)pyrimidin-5-yl]piperidine-1-carboxylate], a half-maximal response (EC50) required 95 nM.
